Measured values as given in patent US20170150719A1, “FUNGICIDAL PYRAZOLES AND THEIR MIXTURES” (E I DU PONT DE NEMOURS AND COMPANY, priority 2010, published 2017).
Marks after values point to notes of the source that are not given here.

What was measured:
[1] = system: Blumeria graminis f. sp. tritici; test: Test I: wheat powdery mildew, preventive spray on wheat seedlings, visual disease rating; conditions: wheat powdery mildew; for Test I rating (disease control) / Test I rating (% disease control): 100 = 100% disease control; for Test I rating (disease control): 0 = no disease control relative to the controls; for Test I rating (% disease control): preventive spray, rating without asterisk
[2] = system: Puccinia recondita f. sp. tritici; test: Test H: wheat leaf rust, preventive spray on wheat seedlings, visual disease rating; conditions: wheat leaf rust, 100 = 100% disease control; for Test H rating (disease control): sprayed the day before inoculation, 0 = no disease control; for Test H rating (% disease control): preventive spray, rating without asterisk
Botrytis cinerea = test: Test A: tomato Botrytis, preventive spray on tomato seedlings, visual disease rating; conditions: tomato Botrytis, 100 = 100% disease control; for Test A rating (disease control): 0 = no disease control relative to the controls; for Test A rating (% disease control): preventive spray, 0 = no control relative to controls, rating without asterisk
Septoria tritici = test: Test F: wheat leaf blotch, preventive spray on wheat seedlings, visual disease rating; type: in vivo; conditions: 100 = 100% disease control; for Test F rating (disease control): 0 = no disease control relative to the controls; for Test F rating (% disease control): preventive spray, rating without asterisk
Excerpt: (§1) A hyphen (-) indicates no test results.

Alternaria solani = test: Test B: tomato early blight, preventive spray on tomato seedlings, visual disease rating; conditions: tomato early blight, 100 = 100% disease control; for Test B rating (disease control): 0 = no disease control relative to the controls; for Test B rating (% disease control): preventive spray, rating without asterisk
Protocol: General protocol for preparing test suspensions for Tests A-I: the test compounds were first dissolved in acetone in an amount equal to 3% of the final volume and then suspended at the desired concentration (in ppm) in acetone and purified water (50/50 mix by volume) containing 250 ppm of the surfactant Trem® 014 (polyhydric alcohol esters). The resulting test suspensions were then used in Tests A-I. Each test was conducted in triplicate, and the results were averaged. Spraying a 200 ppm test suspension to the point of run-off on the test plants was the equivalent of a rate of about 800 g/ha. Unless otherwise indicated, the rating values indicate a 200 ppm test suspension was used. (An asterisk “*” next to the rating value indicates a 40 ppm test suspension was used.)
The test suspension was sprayed to the point of run-off on tomato seedlings. The following day the seedlings were inoculated with a spore suspension of Alternaria solani (the causal agent of tomato early blight) and incubated in a saturated atmosphere at 27° C. for 48 h, and then moved to a growth chamber at 20° C. for 5 days, after which time visual disease ratings were made.

[3] = system: Puccinia recondita f. sp. tritici; test: Test G: wheat leaf rust, spray after inoculation (curative) on wheat seedlings, visual disease rating; type: in vivo; conditions: 100 = 100% disease control; for Test G rating (disease control): sprayed after inoculation, 0 = no disease control; for Test G rating (% disease control): spray after inoculation, rating without asterisk
Excerpt: as §1

Septoria nodorum = test: Test E: Septoria glume blotch, preventive spray on wheat seedlings, visual disease rating; conditions: 100 = 100% disease control; for Test E rating (disease control): Septoria glume blotch, 0 = no disease control relative to the controls; for Test E rating (% disease control): Septoria glume blotch on wheat, preventive spray, rating without asterisk

SMILES	Test I rating (disease control) [1] [%]	Test H rating (disease control) [2] [%]	Test A rating (disease control) (Botrytis cinerea) [%]	Test F rating (disease control) (Septoria tritici) [%]	Test B rating (disease control) (Alternaria solani) [%]	Test G rating (disease control) [3] [%]	Test E rating (disease control) (Septoria nodorum) [%]	Test I rating (disease control), value marked * ([1]; rating marked with asterisk (*), not explained in the text shown)	Test I rating (% disease control) [1] [%]	Test H rating (% disease control) [2] [%]	Test A rating (% disease control) (Botrytis cinerea) [%]	Test F rating (% disease control) (Septoria tritici) [%]	Test B rating (% disease control) (Alternaria solani) [%]	Test G rating (% disease control) [3] [%]	Test E rating (% disease control) (Septoria nodorum) [%]
Cc1nn(C)c(Nc2ccc(Br)cc2F)c1-c1ccc(F)cc1Br [compound 169]	99	96	100	100	0	23	60								
Cc1nn(C)c(Nc2c(Cl)cc(Cl)cc2Cl)c1-c1ccc(F)cc1Cl [compound 170]	79	98	65	100	0	79	0								
Cc1nn(C)c(Nc2ccc(Br)cc2Cl)c1-c1ccc(F)cc1Cl [compound 172]	100	100	100	100	73	0	60								
Cc1nn(C)c(Nc2ccc(Br)cc2Cl)c1-c1ccc(F)cc1Br [compound 173]	99	99	100	100	0	0	40								
Cc1nn(C)c(Nc2c(Cl)cc(Cl)cc2Cl)c1-c1ccc(F)cc1Br [compound 174]		99	95	100	0	0	0	99* %							
Cc1nn(C)c(Nc2ccc(F)cc2I)c1-c1ccc(F)cc1F [compound 175]	100	100	100	100	97	41	73								
Cc1nn(C)c(Nc2ccc(F)cc2I)c1-c1ccc(F)cc1Cl [compound 181]									100	99	100	100	99	99	99
Cc1nn(C)c(Nc2c(F)cc(Cl)cc2I)c1-c1ccc(F)cc1Cl [compound 182]									100	100	100	100	100	100	100
Cc1nn(C)c(Nc2ccc(Br)cc2Br)c1-c1ccc(F)cc1Cl [compound 183]									98	96	100	100	0	54	0
